In US4061649A, “Clavulanic acid sulphates” (Beecham Group Limited, priority 1975, dated 1977):
pIC50: −log10 of the molar value. Structures can show the parent of a compound that is named as a salt.

Tests used:
[1] = system: strains of Klebsiella aerogenes A; experiment: growth inhibition, penicillins with and without clavulanic acid or ester; format: cell-based
[2] = system: strains of Staphylococcus aureus; experiment: growth inhibition; format: cell-based
[3] = system: β-lactamase producing strains of Escherichia coli, Klebsiella aerognes and Staphylococcus aureus; experiment: synergism with ampicillin; format: cell-based
[4] = system: β-lactamase producing strains of Proteus mirabilis and Staphylococcus aureus; experiment: synergism with cephaloridine; format: cell-based
[5] = system: bacteria; experiment: tests for antibacterial activity in broth (Example 32); format: cell-based; conditions: possibly due to clavulanic acid liberated by slow hydrolysis
[6] = system: Enterobacter cloacae; experiment: MIC / synergism, microtitre method (Example 42); format: cell-based; conditions: compound alone; inoculum 0.5 × 10^-2
[7] = system: Serratia marcescens; experiment: MIC / synergism, microtitre method (Example 42); format: cell-based; conditions: compound alone; inoculum 0.5 × 10^-2
[8] = system: Staphylococcus aureus; experiment: MIC / synergism, microtitre method (Example 42); format: cell-based
[9] = system: Proteus mirabilis 899; format: cell-based
[10] = blood and tissue levels in female mice; format: in vivo; conditions: oral administration of 100 mg/kg
[11] = system: Bacillus subtilis; experiment: MIC, microtitre method (Example 30); conditions: approximate MIC; inoculum final dilution 0.5 × 10^-4
Description: (§2) The cultures were incubated overnight and the points of bacterial growth recorded next morning by observing the turbidity of the culture.

[12] = system: Streptococcus faecalis; experiment: MIC, microtitre method (Example 30); conditions: approximate MIC; inoculum final dilution 0.5 × 10^-4
Description: as §2

[13] = system: Streptococcus pyogenes CN 10; experiment: MIC, microtitre method (Example 30); conditions: approximate MIC; inoculum final dilution 0.5 × 10^-4
Description: as §2

[14] = system: Escherichia coli NCTC 10418; experiment: MIC, microtitre method (Example 30); conditions: approximate MIC; inoculum final dilution 0.5 × 10^-4
Description: as §2

[15] = system: Klebsiella aerogenes; experiment: MIC, microtitre method (Example 30); conditions: approximate MIC; inoculum final dilution 0.5 × 10^-4
Description: as §2

[16] = system: Klebsiella oxytocum; experiment: MIC, microtitre method (Example 30); conditions: approximate MIC; inoculum final dilution 0.5 × 10^-4
Description: as §2

[17] = system: Enterobacter aerogenes T 624; experiment: MIC, microtitre method (Example 30); conditions: approximate MIC; inoculum final dilution 0.5 × 10^-4
Description: as §2

[18] = system: Enterobacter cloacae; experiment: MIC, microtitre method (Example 30); conditions: approximate MIC; inoculum final dilution 0.5 × 10^-4
Description: as §2

[19] = system: Acinetobacter anitratus; experiment: MIC, microtitre method (Example 30); conditions: approximate MIC; inoculum final dilution 0.5 × 10^-4
Description: as §2

[20] = system: Providentia stuartii; experiment: MIC, microtitre method (Example 30); conditions: approximate MIC; inoculum final dilution 0.5 × 10^-4
Description: as §2

[21] = system: Serratia marcescens; experiment: MIC, microtitre method (Example 30); conditions: approximate MIC; inoculum final dilution 0.5 × 10^-4
Description: as §2

[22] = system: Proteus mirabilis 0977; experiment: MIC, microtitre method (Example 30); conditions: approximate MIC; inoculum final dilution 0.5 × 10^-4
Description: as §2

[23] = system: Proteus vulgaris W090; experiment: MIC, microtitre method (Example 30); conditions: approximate MIC; inoculum final dilution 0.5 × 10^-4
Description: as §2

[24] = system: Salmonella typhimurium; experiment: MIC, microtitre method (Example 30); conditions: approximate MIC; inoculum final dilution 0.5 × 10^-4
Description: as §2

[25] = system: Shigella sonnei; experiment: MIC, microtitre method (Example 30); conditions: approximate MIC; inoculum final dilution 0.5 × 10^-4
Description: as §2

[26] = system: Pseudomonas aeruginosa A; experiment: MIC, microtitre method (Example 30); conditions: approximate MIC; inoculum final dilution 0.5 × 10^-4
Description: as §2

[27] = system: Bacillus subtilis A; experiment: MIC, method of Example 30 with 1/100 dilution of overnight broth (Example 46); conditions: heavy inocula (1/100 of overnight broth); no unit in table (Example 30: μg/ml)
Description: as §2

[28] = system: Staph.aureus Oxford; experiment: as above; conditions: heavy inocula (1/100 of overnight broth); no unit in table (Example 30: μg/ml)
Description: as §2

[29] = system: Staph.aureus Russell; experiment: as above; conditions: heavy inocula (1/100 of overnight broth); no unit in table (Example 30: μg/ml)
Description: as §2

[30] = molecular target: T1, Escherischia coli JT4 β-lactamase (Escherichia coli, UniProt P62593); experiment: β-lactamase I50, method of Belgian Pat. No. 827926; format: biochemical
T1 construct: host or cells: Escherichia coli JT4
Description: (§1) The I50 in μg/ml of this compound against several β-lactamaseswas determined using the method described in Belgian Pat. No. 827926 and the results are as follows: […]

[31] = molecular target: T2, Pseudomonas Dalgleish β-lactamase (Pseudomonas aeruginosa, UniProt P16897); experiment: β-lactamase I50, method of Belgian Pat. No. 827926; format: biochemical
T2 construct: host or cells: Pseudomonas (aeruginosa) Dalgleish
Description: as §1

[32] = system: Staphylococcus aureus(Russell); experiment: MIC / synergism, microtitre method (Example 42); format: cell-based
[33] = system: Escherichia coli B 11; experiment: MIC / synergism, microtitre method (Example 42); format: cell-based; conditions: compound alone; inoculum 0.5 × 10^-2
[34] = in presence of 5μg/ml clavulanic acid sodium salt

T2 sequence (P16897 18-288): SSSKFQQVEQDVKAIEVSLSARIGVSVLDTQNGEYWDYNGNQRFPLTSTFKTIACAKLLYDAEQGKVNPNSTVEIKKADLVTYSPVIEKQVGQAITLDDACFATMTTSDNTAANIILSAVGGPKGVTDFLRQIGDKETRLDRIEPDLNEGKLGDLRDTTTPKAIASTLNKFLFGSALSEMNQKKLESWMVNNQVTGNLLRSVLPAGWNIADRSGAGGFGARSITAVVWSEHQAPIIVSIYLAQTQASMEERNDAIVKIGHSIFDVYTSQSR
T1 sequence (P62593 24-286 limits assumed): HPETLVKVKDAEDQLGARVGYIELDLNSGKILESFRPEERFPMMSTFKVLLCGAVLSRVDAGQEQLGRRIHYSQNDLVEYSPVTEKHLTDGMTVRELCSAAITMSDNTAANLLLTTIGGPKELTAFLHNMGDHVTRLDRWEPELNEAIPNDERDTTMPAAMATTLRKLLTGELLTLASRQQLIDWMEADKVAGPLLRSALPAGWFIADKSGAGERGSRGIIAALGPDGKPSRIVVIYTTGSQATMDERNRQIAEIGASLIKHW

With `O=C(O)[C@H]1/C(=C/CO)O[C@@H]2CC(=O)N21` [clavulanic acid, Z-(2R,5R)-3-(β-hydroxyethylidene)-7-oxo-4-oxa-1-azabicyclo[3,2,0]heptane-2-carboxylic acid] the MIC ([1]; Klebsiella aerogenes, compound alone, read-out: concentration by which growth is not inhibited) was greater than 10 µg/mL, the inhibition of growth [2] was “able to inhibit the growth” and the “synergism of the antibacterial effect of ampicillin” value [3] was “able to synergyze the antibacterial effect of ampicillin”. The “synergism of the antibacterial effect of cephaloridine” value [4] was “able to synergyze the antibacterial effect of cephaloridine”.
In the case of `COC(=O)[C@H]1/C(=C/CO)O[C@@H]2CC(=O)N21` [clavulanic acid methyl ester], the “antibacterial activity in broth” value [5] was “broad spectrum activity but of a lower order than shown by clavulanic acid”.
In the case of `O=C(O)[C@H]1/C(=C/CO)O[C@@H]2CC(=O)N21` [clavulanic acid sodium salt, 3-(β-hydroxyethylidine)-7-oxo-4-oxa-1-azabicyclo [3,2,0]heptane-2-carboxylic acid sodium salt], the “Minimum Inhibitory Concentrations” value [6] was 62 µg/mL, the “Minimum Inhibitory Concentrations” value [7] was 125 µg/mL and the “Minimum Inhibitory Concentrations” value ([8]; compound alone, inoculum 0.5 × 10^-2) was 62 µg/mL. For the same compound, the “Minimum Inhibitory Concentrations” value [9] was less than 500 µg/mL, the “levels of clavulanic acid” value [10] was “useful levels” and the “Minimum Inhibitory Concentration” value [11] was 62 µg/mL. The “Minimum Inhibitory Concentration” value [12] was greater than 500 µg/mL, the “Minimum Inhibitory Concentration” value [13] was 125 µg/mL and the “Minimum Inhibitory Concentration” value [14] was 31 µg/mL. For the same compound, the “Minimum Inhibitory Concentration” value [15] was 31 to 62 µg/mL, the “Minimum Inhibitory Concentration” value [16] was 62 µg/mL and the “Minimum Inhibitory Concentration” value [17] was 31 µg/mL. The “Minimum Inhibitory Concentration” value [18] was 62 µg/mL, the “Minimum Inhibitory Concentration” value [19] was 125 µg/mL and the “Minimum Inhibitory Concentration” value [20] was 125 µg/mL. The “Minimum Inhibitory Concentration” value [21] was 125 µg/mL, the “Minimum Inhibitory Concentration” value [22] was 62 µg/mL and the “Minimum Inhibitory Concentration” value [23] was 31 µg/mL. For the same compound, the “Minimum Inhibitory Concentration” value [24] was 31 µg/mL, the “Minimum Inhibitory Concentration” value [25] was 62 µg/mL and the “Minimum Inhibitory Concentration” value [26] was 500 µg/mL. It also gave an MIC [27] of 62, an MIC [28] of 15 and an MIC [29] of 15.
In the case of `O=C(OCc1ccccc1)[C@H]1/C(=C/COS(=O)(=O)O)O[C@@H]2CC(=O)N21` [Example 50, Benzyl Clavulanate -- O -- sulphonate trimethylamine salt], the pIC50 [30] was 5.04 and the pIC50 [31] was 4.94.
For `CC1(C)S[C@@H]2[C@H](NC(=O)Cc3ccccc3)C(=O)N2[C@H]1C(=O)O` [Benzylpenicillin, benzylpenicillin, reference compound], the “concentration by which growth is inhibited” value ([1]; when 5 μg/ml. of clavulanic acid is also present) was “less than 12.5 μg/ml”.
For `O=C(Cc1cccs1)N[C@@H]1C(=O)N2C(C(=O)[O-])=C(C[n+]3ccccc3)CS[C@H]12` [Cephaloridine, cephaloridine], the “Minimum Inhibitory Concentrations” value [32, 34] was greater than 0.03 µg/mL, the “Minimum Inhibitory Concentrations” value ([32]; synergist (clavulanic acid sodium salt) added at 1 μg/ml. instead of 5 μg/ml., compared with the value at 5 μg/ml) was “Same value” and the “Minimum Inhibitory Concentrations” value [8, 34] was 3.7 µg/mL.
With `CC1(C)S[C@@H]2[C@H](NC(=O)[C@H](N)c3ccccc3)C(=O)N2[C@H]1C(=O)O` [Ampicillin, ampicillin, reference compound] the “Minimum Inhibitory Concentrations” value [33] was greater than 500 µg/mL and the “Minimum Inhibitory Concentrations” value [6] was 250 µg/mL.
